Experimental data from patent EP0187355A1, “Process for preparing beta-lactam antibiotics” (E.R. Squibb & Sons, Inc., priority 1981, dated 1982).
Counter-ions that a name gives are not always drawn. Like-named read-outs stand apart in the source and are kept apart here.

Tests used:
Assay in all cases: MIC, agar dilution
Format in all cases: cell-based
[1] = system: Acinetobacter calcoaceticus, 8333; conditions: Acinetobacter calcoaceticus, 8333, 18 h, K-10 agar, 10^4 CFU, 37°C, read-out: M.I.C.
Experimental: (§1) The following methodology is used to determine the minimum inhibitory concentration (hereinafter referred to as MIC) of the […] of this invention.
(§2) The test organisms are grown in approximately 15-20 ml of Antibiotic Assay broth (Difco) by inoculating (in tubes) the broth with a loopful of the organism from a BHI (Difco) agar slant. The inoculated tubes are incubated at 37°C for 18 to 20 hours. These cultures are assumed to contain 10^9 colony forming units (hereinafter CFU) per milliliter. The cultures are diluted 1:100 to give a final inoculum level of 10^4 CFU; dilutions are made with K-10 broth^*.
(§3) The compounds are dissolved in the appropriate diluent at a concentration of 1000 µg/ml. Twofold dilutions are made in K-10 broth resulting in a range from 1000 µg/ml to 0.5 µg/ml. 1.5 ml of each dilution is placed into individual square petri dishes to which 13.5 ml of K-10 agar^** is added. The final drug concentration in the agar ranges from 100 µg/ml to 0.05 µg/ml. Organism growth control plates containing agar only are prepared and inoculated before and after the test plates. The organisms are applied to the agar surface of each plate with the Denley Multipoint Inoculator (which delivers approximately 0.001 ml of each organism) resulting in a final inoculum level of 10^4 CFU on the agar surface.
(§4) The plates are incubated at 37 °C for 18 hours and the MIC's are determined. The MIC is the lowest concentration of compound inhibiting growth of the organism.
(§5) The tables that follow are tabulated results obtained when the B-lactams of this invention are tested against various organisms. The number following each organism refers to the number of the organism in the collection of E. R. Squibb & Sons,.Inc., Princeton, New Jersey. […] The symbol "N.T." means not tested.

[2] = system: Citrobacter freundii, 9518; conditions: K-10 agar, 10^4 CFU, 37°C, 18 hours, read-out: M.I.C.
Experimental: as §1, §2, §3, §4, §5

[3] = system: Enterobacter aerogenes, 10078; conditions: Klebsiella aerogenes, 10078, 18 h, Enterobacter aerogenes, 10078; K-10 agar, 10^4 CFU, 37°C, 18 hours; read-out: M.I.C.
Experimental: as §1, §2, §3, §4, §5

Escherichia coli, 10857 = conditions: Escherichia coli, 10857, 18 h, K-10 agar, 10^4 CFU, 37°C
Experimental: as §1, §2, §3, §4, §5

Escherichia coli, 10896 = conditions: K-10 agar, 10^4 CFU, 37°C, 18 hours
Experimental: as §1, §2, §3, §4, §5

Escherichia coli, 10909 = conditions: K-10 agar, 10^4 CFU, 37°C, 18 hours
Experimental: as §1, §2, §3, §4, §5

Escherichia coli, 8294 = conditions: Escherichia coli, 8294, 18 h, K-10 agar, 10^4 CFU, 37°C
Experimental: as §1, §2, §3, §4, §5

[4] = system: Klebsiella aerogenes, 10440; conditions: K-10 agar, 10^4 CFU, 37°C, 18 hours, read-out: M.I.C.
Experimental: as §1, §2, §3, §4, §5

[5] = system: Klebsiella pneumoniae, 9527; conditions: Klebsiella pneumoniae, 9527, 18 h, K-10 agar, 10^4 CFU, 37°C, read-out: M.I.C.
Experimental: as §1, §2, §3, §4, §5

Proteus mirabilis, 3855 = conditions: Proteus mirabilis, 3855, 18 h, K-10 agar, 10^4 CFU, 37°C
Experimental: as §1, §2, §3, §4, §5

Proteus rettgeri, 8479 = conditions: Providencia rettgeri, K-10 agar, 10^4 CFU, 37°C, 18 hours, read-out: M.I.C.
Experimental: as §1, §2, §3, §4, §5

Proteus vulgaris, 9416 = conditions: K-10 agar, 10^4 CFU, 37°C
Experimental: as §1, §2, §3, §4, §5

[6] = system: Pseudomonas aeruginosa, 8329; conditions: K-10 agar, 10^4 CFU, 37°C, 18 hours, read-out: M.I.C.
Experimental: as §1, §2, §3, §4, §5

[7] = system: Pseudomonas aeruginosa, 9545; conditions: Pseudomonas aeruginosa, 9545, 18 h, K-10 agar, 10^4 CFU, 37°C, read-out: M.I.C.
Experimental: as §1, §2, §3, §4, §5

Salmonella typhosa, 1195 = conditions: Salmonella enterica, TYPHOSA, 18 h, K-10 agar, 10^4 CFU, 37°C
Experimental: as §1, §2, §3, §4, §5

[8] = system: Serratia marcescens, 9783; conditions: Serratia marcescens, 9783, 18 h, K-10 agar, 10^4 CFU, 37°C, read-out: M.I.C.
Experimental: as §1, §2, §3, §4, §5

Shigella sonnei, 8449 = conditions: Shigella sonnei, 8449, 18 h, K-10 agar, 10^4 CFU, 37°C
Experimental: as §1, §2, §3, §4, §5

[9] = system: Staphylococcus aureus, 10165; conditions: Staphylococcus aureus, 10165; K-10 agar, 10^4 CFU, 37°C, 18 hours; read-out: M.I.C.
Experimental: as §1, §2, §3, §4, §5

[10] = system: Staphylococcus aureus, 1276; conditions: Staphylococcus aureus, 1276; K-10 agar, 10^4 CFU, 37°C, 18 hours; read-out: M.I.C.
Experimental: as §1, §2, §3, §4, §5

[11] = system: Staphylococcus aureus, 2399; conditions: Staphylococcus aureus, 2399, 18 h, Staphylococcus aureus, 2399; K-10 agar, 10^4 CFU, 37°C, 18 hours; read-out: M.I.C.
Experimental: as §1, §2, §3, §4, §5

[12] = system: Staphylococcus aureus, 2400; conditions: Staphylococcus aureus, 2400; K-10 agar, 10^4 CFU, 37°C, 18 hours; read-out: M.I.C.
Experimental: as §1, §2, §3, §4, §5

[13] = system: Streptococcus faecalis, 9011; conditions: Enterococcus faecalis; Streptococcus faecalis, 9011; K-10 agar, 10^4 CFU, 37°C, 18 hours; read-out: M.I.C.
Experimental: as §1, §2, §3, §4, §5

[14] = system: Enterobacter cloacae, 8236; conditions: Enterobacter cloacae, 8236, 18 h, K-10 agar, 10^4 CFU, 37°C
Experimental: as §1, §2, §3
(§6) The MIC is the lowest concentration of compound inhibiting growth of the organism.
(§7) The number following each organism refers to the number of the organism in the collection of E. R. Squibb & Sons,.Inc., Princeton, New Jersey. […] The symbol "N.T." means not tested.

Micrococcus luteus, 2495 = conditions: Micrococcus luteus, 2495, 18 h, K-10 agar, 10^4 CFU, 37°C, read-out: M.I.C.
Experimental: as §1, §2, §3, §6, §7

[15] = system: Streptococcus agalactiae, 9287; conditions: Streptococcus agalactiae, 9287, 18 h, K-10 agar, 10^4 CFU, 37°C, read-out: M.I.C.
Experimental: as §1, §2, §3, §6, §7

Structure (SMILES)	MIC [1] [µg/mL]	MIC [2] [µg/mL]	MIC [3] [µg/mL]	MIC (Escherichia coli, 10857) [µg/mL]	MIC (Escherichia coli, 10896) [µg/mL]	MIC (Escherichia coli, 10909) [µg/mL]	MIC (Escherichia coli, 8294) [µg/mL]	MIC [4] [µg/mL]	MIC [5] [µg/mL]	MIC (Proteus rettgeri, 8479) [µg/mL]	MIC [6] [µg/mL]	MIC [7] [µg/mL]	MIC (Salmonella typhosa, 1195) [µg/mL]	MIC [8] [µg/mL]	MIC (Shigella sonnei, 8449) [µg/mL]	MIC [9] [µg/mL]	MIC [10] [µg/mL]	MIC [11] [µg/mL]	MIC [12] [µg/mL]	MIC [13] [µg/mL]	other results
CC1C(NC(=O)C(NC(=O)C(N)=O)c2cccs2)C(=O)N1S(=O)(=O)O (racemic) [Example 14, [3S-[3α(±),4β]]-3-[[[(aminooxoacetyl)amino]-2-thienylacetyl]amino]-4-methyl-2-oxo-1-azetidine-sulfonic acid, potassium salt]	100	1.6	3.1	0.4	1.6	0.8	1.6	3.1	1.6	0.8	100	3.1	0.8	3.1	0.8	> 100	50	50	100	> 100	MIC (Proteus mirabilis, 3855; read-out: M.I.C.): 0.8 µg/mL; MIC (Proteus vulgaris, 9416; 18 hours, read-out: M.I.C.): 0.8 µg/mL; MIC [14]: 3.1 µg/mL; MIC (Micrococcus luteus, 2495): 12.5 µg/mL; MIC [15]: 3.1 µg/mL
CO/N=C(\C(=O)NC1C(=O)N(S(=O)(=O)O)C1(C)C)c1csc(N)n1 (racemic) [Example 25, [3±(Z)]-3-[[(2-Amino-4-thiazolyl) (methoxyimino)-acet^yl]amino]-4,4-dimethyl-2-oxo-1-azetidinesulfonic acid, potassium salt]	> 100	25	100	6.3	25	25	50	100	6.3	0.8	> 100	> 100	12.5	100	25	> 100	> 100	> 100	> 100	> 100	MIC (Proteus mirabilis, 3855): 12.5 µg/mL; MIC (Proteus vulgaris, 9416; Proteus vulgaris, 9416, 18 h): 12.5 µg/mL; MIC [14]: 100 µg/mL; MIC (Micrococcus luteus, 2495): > 100 µg/mL; MIC [15]: > 100 µg/mL
CC1(C)C(NC(=O)Cc2ccccc2)C(=O)N1S(=O)(=O)O (racemic) [Example 26, (±)-4,4-Dimethyl-2-oxo-3-[(phenylacetyl)amino]-1-azetidinesulfonic acid, potassium salt]	> 100	> 100	> 100	50	> 100	> 100	> 100	> 100	> 100	100	> 100	> 100	> 100	> 100	> 100	> 100	> 100	> 100	> 100	> 100	MIC (Proteus mirabilis, 3855; read-out: M.I.C.): > 100 µg/mL; MIC (Proteus vulgaris, 9416; 18 hours, read-out: M.I.C.): 100 µg/mL; MIC [14]: > 100 µg/mL; MIC (Micrococcus luteus, 2495): > 100 µg/mL; MIC [15]: > 100 µg/mL
